Values of other authors as cited in US20070128276A1 (PANACEA BIOTEC LTD., priority 1999, published 2007).

Key:
prostaglandin synthesis = details: in vitro
yeast-induced fever = details: rats with yeast-induced fever
[1] = animal studies
[2] = tested on: renal prostaglandin synthesis; details: rats

effect on renal prostaglandin synthesis [2]: little effect | oral drug absorption: nearly complete | bound to plasma proteins (plasma proteins): 99%
Compound: CS(=O)(=O)Nc1ccc([N+](=O)[O-])cc1Oc1ccccc1 [Nimesulide]
inhibition of prostaglandin synthesis (prostaglandin synthesis): relatively weak inhibitor | antipyretic potency versus reference drugs (yeast-induced fever): superior antipyretic potency to indomethacin, ibuprofen, aspirin and paracetamol (acetaminophen) | ulcerogenicity versus reference NSAIDs [1]: less ulcerogenic than aspirin, indomethacin, naproxen, piroxicam and ibuprofen | effect of concomitant food on absorption (oral, concomitant administration of food): may decrease the rate, but not the extent of absorption
